According to patent US9169254B2, “Spiroimidazolone derivative” (Chugai Seiyaku Kabushiki Kaisha, priority 2009, dated 2015):

Target: T1, human PTH1 receptor (Homo sapiens, UniProt Q03431)
T1 sequence (Q03431 27-593): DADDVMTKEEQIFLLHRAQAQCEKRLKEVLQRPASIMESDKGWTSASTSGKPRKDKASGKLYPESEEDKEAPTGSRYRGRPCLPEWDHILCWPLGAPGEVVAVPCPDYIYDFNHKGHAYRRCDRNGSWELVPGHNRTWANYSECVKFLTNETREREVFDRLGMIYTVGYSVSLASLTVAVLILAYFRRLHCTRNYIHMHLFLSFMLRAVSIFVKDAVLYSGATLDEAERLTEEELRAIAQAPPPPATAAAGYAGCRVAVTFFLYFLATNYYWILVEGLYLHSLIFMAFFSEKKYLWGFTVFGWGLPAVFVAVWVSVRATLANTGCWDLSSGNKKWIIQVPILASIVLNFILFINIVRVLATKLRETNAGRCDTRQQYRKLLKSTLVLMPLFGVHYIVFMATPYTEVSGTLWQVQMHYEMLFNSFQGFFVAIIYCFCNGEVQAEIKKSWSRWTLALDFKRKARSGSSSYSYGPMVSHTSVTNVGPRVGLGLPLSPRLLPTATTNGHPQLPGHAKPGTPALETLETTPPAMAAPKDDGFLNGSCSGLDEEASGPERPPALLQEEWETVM
Assay: In vitro cAMP signal activity in HKRK-B7 cells (LLC-PK1 cells overexpressing the human PTH1 receptor)
Assay type: cell-based
Details: HKRK-B7 cells; compound at 1×10^−3 M; cAMP produced as percentage of that produced by hPTH(1-34) at 100 nM

| Compound | cAMP production activity (%) |
| --- | --- |
| Cc1cc(C(=O)N2CCC(O)(CF)CC2)cc(C)c1/C=C/S(=O)(=O)N1CCC2(CC1)N=C(c1ccc(Cl)c(OCC(F)(F)C(F)(F)F)c1)NC2=O [Compound 1270, 2-[4-chloro-3-(2,2,3,3,3-pentafluoro-propoxy)-phenyl]-8-{(E)-2-[4-(4-fluoromethyl-4-hydroxy-piperidine-1-carbonyl)-2,6-dimethyl-phenyl]-ethenesulfonyl}-1,3,8-triaza-spiro[4.5]dec-1-en-4-one] | 61 |
| [2H]C([2H])([2H])N(C(=O)OC(C)(C)C)c1cc(C)c(/C=C/S(=O)(=O)N2CCC3(CC2)N=C(c2ccc(F)c(C(F)(F)F)c2)NC3=O)c(C)c1 [Compound 640, (4-{(E)-2-[2-(4-fluoro-3-trifluoromethyl-phenyl)-4-oxo-1,3,8-triaza-spiro[4.5]dec-1-ene-8-sulfonyl]-vinyl}-3,5-dimethyl-phenyl)-[1,1,1-^2H3]methyl-carbamic acid tert-butyl ester] | 26 |
| O=C(Nc1ccc(CCS(=O)(=O)N2CCC3(CC2)N=C(C2CCCCC2)NC3=O)c(C(F)(F)F)c1)C1CC1 [Compound 271, cyclopropanecarboxylic acid {4-[2-(2-cyclohexyl-4-oxo-1,3,8-triaza-spiro[4.5]dec-1-ene-8-sulfonyl)-ethyl]-3-trifluoromethyl-phenyl}-amide] | 57 |
| Cc1cc(N(C)C(N)=O)cc(C)c1CC[S@TB4](=O)(=O)N1CCC2(CC1)N=C(c1cccc(-c3cccc(-c4ccccc4)c3)c1)NC2=O [Compound 1155, 1-{3,5-dimethyl-4-[2-(4-oxo-2-[1,1′;3′,1″]terphenyl-3-yl-1,3,8-triaza-spiro[4.5]dec-1-ene-8-sulfonyl)-ethyl]-phenyl}-1-methyl-urea] | 83 |
| Cc1cc(C(=O)N2CCC(CO)CC2)cc(C)c1/C=C/S(=O)(=O)N1CCC2(CC1)N=C(c1ccc(F)c(OC(F)(F)F)c1)NC2=O [Compound 1161, 2-(4-Fluoro-3-trifluoromethoxy-phenyl)-8-{(E)-2-[4-(4-hydroxymethyl-piperidine-1-carbonyl)-2,6-dimethyl-phenyl]-ethenesulfonyl}-1,3,8-triaza-spiro[4.5]dec-1-en-4-one] | 84 |
| Cc1cc(N(C)C(N)=O)cc(C)c1CCS(=O)(=O)N1CCC2(CC1)N=C(C(F)CCCCCCCC(F)(F)F)NC2=O (stereo not shown) [Compound 1151, 1-(3,5-Dimethyl-4-{2-[4-oxo-2-(1,9,9,9-tetrafluoro-nonyl)-1,3,8-triaza-spiro[4.5]dec-1-ene-8-sulfonyl]-ethyl}-phenyl)-1-methyl-urea] | 105 |
| Cc1cc(NCCN(C)C)ccc1CCS(=O)(=O)N1CCC2(CC1)N=C(C1CCCCC1)NC2=O [Compound 842, 2-cyclohexyl-8-{2-[4-(2-dimethylamino-ethylamino)-2-methyl-phenyl]-ethanesulfonyl}-1,3,8-triaza-spiro[4.5]dec-1-en-4-one] | 81 |
| Cc1cc(N2C(=O)CCC2CO)ccc1/C=C/S(=O)(=O)N1CCC2(CC1)N=C(c1cccc(C(F)(F)F)c1)NC2=O (stereo in doubt) [Compound 221, 8-{(E)-2-[4-((R)-2-hydroxymethyl-5-oxo-pyrrolidin-1-yl)-2-methyl-phenyl]-ethenesulfonyl}-2-(3-trifluoromethyl-phenyl)-1,3,8-triaza-spiro[4.5]dec-1-en-4-one] | 103 |
| Cc1cc(C(=O)N(C)C)ccc1CCS(=O)(=O)N1CCC2(CC1)N=C(COc1ccc(F)cc1)NC2=O [Compound 125, 4-{2-[2-(4-fluoro-phenoxymethyl)-4-oxo-1,3,8-triaza-spiro[4.5]dec-1-ene-8-sulfonyl]-ethyl}-3,N,N-trimethyl-benzamide] | 62 |
| CN(C)CCNC(=O)Cc1ccc(/C=C/S(=O)(=O)N2CCC3(CC2)N=C(C2CCCCC2)NC3=O)cc1 [Compound 208, 2-{4-[(E)-2-(2-cyclohexyl-4-oxo-1,3,8-triaza-spiro[4.5]dec-1-ene-8-sulfonyl)-vinyl]-phenyl}-N-(2-dimethylamino-ethyl)-acetamide] | 22 |
| Cc1cc(N2C[C@H](O)CC2=O)ccc1/C=C/S(=O)(=O)N1CCC2(CC1)N=C(c1cccc(C(F)(F)F)c1)NC2=O [Compound 220, 8-{(E)-2-[4-((R)-4-hydroxy-2-oxo-pyrrolidin-1-yl)-2-methyl-phenyl]-ethenesulfonyl}-2-(3-trifluoromethyl-phenyl)-1,3,8-triaza-spiro[4.5]dec-1-en-4-one] | 80 |
| Cc1cc(N(C)C(=O)CN(C)C)cc(C)c1/C=C/S(=O)(=O)N1CCC2(CC1)N=C(c1cccc(OC(F)(F)F)c1)NC2=O [Compound 608, 2-dimethylamino-N-(3,5-dimethyl-4-{(E)-2-[4-oxo-2-(3-trifluoromethoxy-phenyl)-1,3,8-triaza-spiro[4.5]dec-1-ene-8-sulfonyl]-vinyl}-phenyl)-N-methyl-acetamide] | 20 |
| Cc1cc(N(C)C(N)=O)cc(C)c1CCS(=O)(=O)N1CCC2(CC1)N=C(C1CCCC(C)C1)NC2=O (stereo not shown) [Compound 1297, 1-(3,5-Dimethyl-4-{2-[2-(3-methyl-cyclohexyl)-4-oxo-1,3,8-triaza-spiro[4.5]dec-1-ene-8-sulfonyl]-ethyl}-phenyl)-1-methyl-urea] | 98 |
| Cc1cc(C(=O)N(C)C)ccc1CCS(=O)(=O)N1CCC2(CC1)N=C(c1ccc(Cl)cc1F)NC2=O [Compound 129, 4-{2-[2-(4-chloro-2-fluoro-phenyl)-4-oxo-1,3,8-triaza-spiro[4.5]dec-1-ene-8-sulfonyl]-ethyl}-3,N,N-trimethyl-benzamide] | 3.7 |
| Cc1cc(C(=O)N2CCC(O)(CF)CC2)cc(C)c1CCS(=O)(=O)N1CCC2(CC1)N=C(c1ccc3c(c1)OC(F)(F)O3)NC2=O [Compound 1275, 2-(2,2-difluoro-benzo[1,3]dioxol-5-yl)-8-{2-[4-(4-fluoromethyl-4-hydroxy-piperidine-1-carbonyl)-2,6-dimethyl-phenyl]-ethanesulfonyl}-1,3,8-triaza-spiro[4.5]dec-1-en-4-one] | 89 |
| CC(=O)Nc1ccc(CCS(=O)(=O)N2CCC3(CC2)N=C(C2CCC(CCCCl)CC2)NC3=O)c(C)c1 (stereo not shown) [Compound 1065, N-[4-(2-{2-[4-(3-chloro-propyl)-cyclohexyl]-4-oxo-1,3,8-triaza-spiro[4.5]dec-1-ene-8-sulfonyl}-ethyl)-3-methyl-phenyl]-acetamide] | 83 |
| O=C(CCCc1ccccc1)N1CCCC(C2=NC3(CCN(S(=O)(=O)CCc4cccc5ccccc45)CC3)C(=O)N2)C1 (stereo not shown) [Compound 437, 8-(2-naphthalen-1-yl-ethanesulfonyl)-2-[1-(4-phenyl-butyryl)-piperidin-3-yl]-1,3,8-triaza-spiro[4.5]dec-1-en-4-one] | 45 |
| O=C1NC(C2CCCCC2)=NC12CCN(S(=O)(=O)CCc1ccc3[nH]c(=O)sc3c1)CC2 [Compound 663, 2-cyclohexyl-8-[2-(2-oxo-2,3-dihydro-benzothiazol-6-yl)-ethanesulfonyl]-1,3,8-triaza-spiro[4.5]dec-1-en-4-one] | 27 |
| O=C1NC(C2CCCCC2)=NC12CCN(S(=O)(=O)CCCCCc1cccc3[nH]ccc13)CC2 [Compound 262, 2-cyclohexyl-8-[5-(1H-indol-4-yl)-pentane-1-sulfonyl]-1,3,8-triaza-spiro[4.5]dec-1-en-4-one] | 26 |
| Cc1cc(C(=O)N(C)C)cc(C)c1/C=C/S(=O)(=O)N1CCC2(CC1)N=C(c1cccc(C(F)(F)F)c1)NC2=O [Compound 383, 3,5,N,N-Tetramethyl-4-{(E)-2-[4-oxo-2-(3-trifluoromethyl-phenyl)-1,3,8-triaza-spiro[4.5]dec-1-ene-8-sulfonyl]-vinyl}-benzamide] | 72 |
| Cc1cc2ccc1CCS(=O)(=O)N1CCC3(CC1)N=C(NC3=O)c1cc(cc(C(F)(F)F)c1)OCC/C=C/COCCNC2=O [Compound 1426] | 5.4 |
| Cc1cc2ccc1CCS(=O)(=O)N1CCC3(CC1)N=C(NC3=O)c1cc(cc(C(F)(F)F)c1)OCC/C=C\CN(C)C2=O [Compound 1408] | 5.1 |
| Cc1cc(C(=O)N(C)C)ccc1CCS(=O)(=O)N1CCC2(CC1)N=C(c1cccc(C)c1C)NC2=O [Compound 113, 4-{2-[2-(2,3-dimethyl-phenyl)-4-oxo-1,3,8-triaza-spiro[4.5]dec-1-ene-8-sulfonyl]-ethyl}-3,N,N-trimethyl-benzamide] | 111 |
| O=C1NC(c2ccc(Cl)cc2Cl)=NC12CCN(S(=O)(=O)c1cccc3cccnc13)CC2 [Compound 48, 2-(2,4-Dichloro-phenyl)-8-(quinoline-8-sulfonyl)-1,3,8-triaza-spiro[4.5]dec-1-en-4-one] | 25 |
| Cc1cc(N(C)C(N)=O)cc(C)c1CCS(=O)(=O)N1CCC2(CC1)N=C(C1CCC3(CC1)CC3)NC2=O [Compound 1058, 1-{3,5-dimethyl-4-[2-(4-oxo-2-spiro[2.5]oct-6-yl-1,3,8-triaza-spiro[4.5]dec-1-ene-8-sulfonyl)-ethyl]-phenyl}-1-methyl-urea] | 133 |
